According to US20260258084A1, “New Peptides as Selective IL-23 Receptor Antagonists” (Sanofi, priority 2022, published 2026):
Values after ≈ are worked out from the molar mass of the structure shown. Read-outs that look alike come from different tables or passages of the source. Starred links: 1 amine or outer side, 2 acyl side, 3 side chain; linkers in the order of their positions; H or OH if unused. Positions of bridges follow the written chain, without caps; N, C: chain ends. Non-standard residues stand in square brackets, D forms with d. Residues, ends and D or L forms follow the SMILES beside them. *: point of attachment. Trp(7-Me) = Cc1cccc2c(C[C@H](N)C(=O)O)c[nH]c12; X1 = O=C(CCCCN[*:3])N[C@@H](CS[*:2])C(=O)[*:1]; 2Nal = N[C@@H](Cc1ccc2ccccc2c1)C(=O)O; NMeN = CN[C@@H](CC(N)=O)C(=O)O; αMeP = C[C@@]1(C(=O)O)CCCN1; Thp = NC1(C(=O)O)CCOCC1; Me2NCH2CH2 = CN(C)CC*; Aib = CC(C)(N)C(=O)O; Ahx = NCCCCCC(=O)O; Ava = NCCCCC(=O)O

Columns and labels:
[1] = Solubility testing of peptides at different pH; type: physicochemical; conditions: target concentration 1 mg/ml, 2 hours agitation
Summary of the method: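 Solid obtained by drying down DMSO stock was taken up at 1 mg/mL in 50 mM HCl pH 1.2 or 50 mM phosphate pH 6.5, 7.4 or 9.0, agitated gently for 2 h, then filtered (0.45 μm). Solubility by UPLC-UV peak area against a DMSO reference standard curve, corrected for extinction coefficients.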

Pancreatin = test: Protease stability in simulated intestinal fluid (Pancreatin-SIF, FaSSIF); type: in vitro ADME; conditions: 1 μM peptide, 37° C.; for remaining at 1 h, 1 µM: 60 min, read-out: FaSSIF 60 (min), remaining percent of peptide; for remaining at 2 h, 1 µM: 120 min, read-out: FaSSIF 120 (min), remaining percent of peptide; for remaining at 4 h, 1 µM: 240 min, read-out: FaSSIF 240 (min), remaining percent of peptide
Summary of the method: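 Peptide (1 μM final) was incubated at 37° C in simulated intestinal fluid containing pancreatin (1 mg per 10 mL SIF concentrate). Samples were quenched with ethanol/0.1% HCOOH at 0, 60, 120 and 240 min and analysed by LC-MS/MS. Percent remaining is the peak area relative to time 0 (100%).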

[2] = biological target: T1, human interleukin-23 receptor (recombinant human IL-23R-Fc chimera) (Homo sapiens, UniProt Q5VWK5); test: Human ELISA IL23/IL23R (assay for specific human IL23R antagonists); type: binding; conditions: Table 10; read-out: Human ELISA IL23/IL23R IC50
T1 construct: Fc (IgG Fc fusion)
Summary of the method: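 Plates coated overnight at 4 °C with human IL23 ([…]), blocked, then serially diluted peptides added with recombinant human IL-23R-Fc (0.1 μg/ml final) for 60 min at room temperature. Bound receptor detected with anti-human IgG1-HRP and fluorogenic peroxidase substrate.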

[3] = Chemical stability assessment of peptides (relative purity loss); type: physicochemical; conditions: 24 hours at 37° C.; for Chemical stability (relative purity loss) Buffer pH 1.2: 50 mM HCl pH 1.2 + acetonitrile (1:1); for Chemical stability (relative purity loss) Buffer pH 7.4: 50 mM phosphate buffer pH 7.4 + acetonitrile (1:1); for Chemical stability (relative purity loss) Buffer pH 6.5: 50 mM phosphate buffer pH 6.5 + acetonitrile (1:1)
Summary of the method: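 Peptide solutions at 1 mg/ml (purity-corrected) in 1:1 acetonitrile with 50 mM HCl pH 1.2, or 50 mM phosphate pH 6.5 or pH 7.4, held 24 hours at 2° C. and 37° C. Supernatants analysed by UHPLC-UV; relative purity loss taken as percent drop in peak-area purity from 0 to 24 hours at 37° C.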

[4] = test system: IL-23 induced STAT3 signaling in HEK-Blue™ IL-23 cells; test: IL-23 induced STAT3 signaling in HEK-Blue IL-23 cells (SEAP reporter); type: cell-based; conditions: human IL23 0.25 ng/ml, read-out: pSTAT3
Summary of the method: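 HEK-Blue IL-23 cells (10,000/well) pre-incubated 60 min at 37 °C with serially diluted peptides, then stimulated overnight with human IL-23 (0.25 ng/ml final). STAT3-driven SEAP in supernatant detected with QUANTI-Blue after 45 min at RT (OD 620-655 nm); dose-response curves fitted.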

Pepsin = test system: T2, Pepsin; test: Protease stability in simulated gastric fluid (Pepsin-SGF, FaSSGF); type: in vitro ADME; conditions: simulated gastric fluid with pepsin (Pepsin-SGF), 60 min, 1 μM peptide, 37° C., read-out: FaSSGF 60 (min), remaining percent of peptide
T2 construct: purchased Merck Millipore
Summary of the method: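 Peptides at 1 μM final in pepsin-containing SGF at 37° C, sampled at 0, 60, 120 and 240 min, quenched with ethanol (0.1% HCOOH). Analysed by LCMS/MS; percent remaining from peak area relative to time 0 (set to 100%).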

[5] = 50 mM HCl buffer, 50 mM HCl pH 1.2, read-out: Solubility Buffer pH 1.2
[6] = 50 mM phosphate buffer pH 6.5, read-out: Solubility Buffer pH 6.5
[7] = 50 mM phosphate buffer pH 7.4, read-out: Solubility Buffer pH 7.4

## COc1ccc(C[C@@H]2NC(=O)[C@@H]3CSSC[C@H](NC(=O)CCCCCNC(=O)C[C@@H](C(=O)N[C@@H](CC(N)=O)C(=O)N[C@@H](CC(N)=O)C(N)=O)NC(=O)C(C)(C)NC(=O)[C@H](Cc4ccc5ccccc5c4)NC2=O)C(=O)N(C)[C@@H](CC(N)=O)C(=O)N[C@@H]([C@@H](C)O)C(=O)N[C@@H](Cc2c[nH]c4ccccc24)C(=O)N[C@@H](CCC(N)=O)C(=O)N3)cc1 [compound 6] ([Ahx]C[NMeN]TWQCY(Me)[2Nal][Aib]DNN-NH2; disulfide 2-7; lactam N-11)
[1]; [5]
  solubility at 2 h: 40 µg/mL (≈ 24.1 µM)
[1]; [6]
  solubility at 2 h: 30 µg/mL (≈ 18 µM)
[1]; [7]
  solubility at 2 h: 20 µg/mL (≈ 12 µM)
Pancreatin
  remaining at 1 h, 1 µM: 78%
  remaining at 2 h, 1 µM: 77%
  remaining at 4 h, 1 µM: 51%
[2]
  IC50: 0.68 nM
[3]
  Chemical stability (relative purity loss) Buffer pH 1.2: 27.4%
  Chemical stability (relative purity loss) Buffer pH 7.4: 3.1%
[4]
  IC50: 72.9 nM
Pepsin
  remaining at 1 h, 1 µM: 1%

## CC(=O)N[C@H]1CCCCNC(=O)[C@@H]2CSSC[C@H](NC(=O)[C@H](CCC(N)=O)NC(=O)[C@H](Cc3c[nH]c4ccccc34)NC1=O)C(=O)N[C@@H](Cc1ccc(OCCN(C)C)cc1)C(=O)N[C@@H](Cc1ccc3ccccc3c1)C(=O)NC1(CCOCC1)C(=O)N[C@H](C(=O)N[C@@H](CC(N)=O)C(=O)NCC(N)=O)CCC(=O)NCCCCC(=O)N2 [compound 30] (Ac-KWQCY(Me2NCH2CH2)[2Nal][Thp]ENG-NH2; linker 1-4-8 via X1)
Pancreatin
  remaining at 1 h, 1 µM: 93%
  remaining at 2 h, 1 µM: 92%
  remaining at 4 h, 1 µM: 83%
[2]
  IC50: 0.54 nM
[3]
  Chemical stability (relative purity loss) Buffer pH 1.2: 18.7%
  Chemical stability (relative purity loss) Buffer pH 6.5: 2.1%
  Chemical stability (relative purity loss) Buffer pH 7.4: 3.7%
[4]
  IC50: 5.41 nM
Pepsin
  remaining at 1 h, 1 µM: 87%

## COc1ccc(C[C@@H]2NC(=O)[C@@H]3CSSC[C@H](NC(=O)CCCCCNC(=O)CC[C@@H](C(=O)N[C@@H](CC(N)=O)C(=O)N[C@@H](CC(N)=O)C(N)=O)NC(=O)C(C)(C)NC(=O)[C@H](Cc4ccc5ccccc5c4)NC2=O)C(=O)N[C@@H](CC(N)=O)C(=O)N[C@@H]([C@@H](C)O)C(=O)N[C@@H](Cc2c[nH]c4ccccc24)C(=O)N[C@@H](CCC(N)=O)C(=O)N3)cc1 [compound 2] ([Ahx]CNTWQCY(Me)[2Nal][Aib]ENN-NH2; disulfide 2-7; lactam N-11)
[1]; [5]
  solubility at 2 h: 100 µg/mL (≈ 60.1 µM)
[1]; [6]
  solubility at 2 h: < 50 µg/mL
[1]; [7]
  solubility at 2 h: < 50 µg/mL
Pancreatin
  remaining at 1 h, 1 µM: 71%
  remaining at 2 h, 1 µM: 71%
  remaining at 4 h, 1 µM: 47%
[2]
  IC50: 0.6 nM
[3]
  Chemical stability (relative purity loss) Buffer pH 1.2: 27.5%
  Chemical stability (relative purity loss) Buffer pH 6.5: 0.1%
  Chemical stability (relative purity loss) Buffer pH 7.4: 0.8%
[4]
  IC50: 54 nM
Pepsin
  remaining at 1 h, 1 µM: 1%

## CC(=O)NCCCC[C@@H]1NC(=O)[C@H](Cc2c[nH]c3c(C)cccc23)NC(=O)[C@H]([C@@H](C)O)NC(=O)[C@H](CC(N)=O)NC(=O)[C@@H]2CSSC[C@H](NC1=O)C(=O)N[C@@H](Cc1ccc(OCCN(C)C)cc1)C(=O)N[C@@H](Cc1ccc3ccccc3c1)C(=O)NC1(CCOCC1)C(=O)N[C@H](C(=O)N[C@@H](CC(N)=O)C(=O)N[C@@H](Cc1c[nH]cn1)C(=O)N1CCC[C@@]1(C)C(N)=O)CCC(=O)NCCCCC(=O)N2 [compound 55] ([Ava]CNT[Trp(7-Me)]K(Ac)CY(Me2NCH2CH2)[2Nal][Thp]ENH[αMeP]-NH2; disulfide 2-7; lactam N-11)
[1]; [5]
  solubility at 2 h: ≥ 1110 µg/mL
[1]; [6]
  solubility at 2 h: ≥ 1040 µg/mL
[1]; [7]
  solubility at 2 h: ≥ 960 µg/mL
Pancreatin
  remaining at 1 h, 1 µM: 89%
  remaining at 2 h, 1 µM: 80%
  remaining at 4 h, 1 µM: 82%
[2]
  IC50: 0.4 nM
[4]
  IC50: 0.95 nM
Pepsin
  remaining at 1 h, 1 µM: 91%
